Data from US10344330B2, “Glatiramer acetate response biomarker mRNA potency assay” (Mylan Inc., priority 2013, dated 2019).

B1: MBP: myelin basic protein, a negative control (protein, UniProt P02686 1-304, looked up)
Myelin basic protein: MGNHAGKRELNAEKASTNSETNRGESEKKRNLGELSRTTSEDNEVFGEADANQNNGTSSQDTAVTDSKRTADPKNAWQDAHPADPGSRPHLIRLFSRDAPGREDNTFKDRPSESDELQTIQEDSAATSESLDVMASQKRPSQRHGSKYLATASTMDHARHGFLPRHRDTGILDSIGRFFGGDRGAPKRGSGKDSHHPARTAHYGSLPQKSHGRTQDENPVVHFFKNIVTPRTPPPSQGKGRGLSLSRFSWGAEGQRPGFGYGGRASDYKSAHKGFKGVDAQGTLSKIFKLGGRDSRSGSPMARR

What was measured:
Assay type in all cases: cell-based, mouse
[1] = test system: IL-10 secreted by LN cells; assay: IL-10 secretion by GA-stimulated LN cells, MSD 9-plex ELISA (Example II); conditions: for IL-10 secretion response ratio (treated cell medium to control DCCM1 medium): 21 hr
Method: Animals at 8 weeks of age were immunized by injection into four footpads using a 1 mL syringe with a 27-G, 1⁄2-inch needle. […] Ten days post-immunization, immunized animals were sacrificed via cervical dislocation. […] The LN cells were isolated by pressing the LN with the plunger end of a sterile syringe. […] Trypan blue exclusion method was used to determine the cell density of viable cells in the suspension. […] Cat. […] LN cells were plated into a 24-well tissue culture plate for drug stimulation. […] Cell debris was removed by centrifugation at ca. 200×g for 10 minutes at 4° C. Cytokines secreted by treated cells were determined on the day of collection by ELISA using mouse TH 1/TH 2 9-Plex Tissue Culture Kit (Meso Scale Discovery; Cat No. […]-2, Lot #: K0032839) which detects Th1 cytokines (IFN-γ, IL-2, IL-12, IL-1β, TNF-α, CXCL1) and Th2 cytokines (IL-4, IL-5 and IL-10). For IFN-γ, culture media also were assayed at 45 hours using mouse IFN-γ Tissue Culture Kit (Meso Scale Discovery; Cat No. […] For the positive control, 0.5 mL of LN cells (5×10^6 cells/well) were treated with 0.5 mL of ConA (5 μg/mL). For the negative control, 0.5 mL of LN cells (5×10^6 cells/well) were treated with 0.5 mL of MBP (20 μg/mL). The LN cells with mock stimulation (enriched DCCM1 medium) were used to monitor the background level of a cytokine. For the cytokine assays, calibration standards or samples were incubated in the MULTI-SPOT or the SINGLE-SPOT plate and each cytokine bound to its corresponding capture antibody. All test samples were run in duplicate. The amount of each cytokine on its distinct spot was quantified using a cytokine-specific detection antibody labeled with MSD SULFO-TAGTM reagent. Electrochemiluminescent signals from immobilized SULFO-TAGTM-labeled complexes on each spot from each well were captured by the MSD SECTOR Imager 6000, which produces a signal directly proportional to the amount of captured cytokine in a test sample. The levels of cytokines in test samples were derived by interpolation from calibration curves with calibration standards of known concentrations using reagents provided with the MSD kits. Kits were used according to the manufacturer's protocols. […] Data are expressed as a response ratio of cytokine concentration in treated cell medium to control DCCM1 medium.

IL-10 mRNA in LN cells = assay: IL-10 mRNA by real-time PCR in LN cells of GA-immunized CD-1, BALB/cByJ, SJL/J mice (Example III); conditions: 6 hours
Method: (§1) On Day 0, mice were immunized with 250 μg GA (GMA, Mylan Pharmaceuticals, Inc.) and CFA. The GA solution (20 mg/mL) was diluted with Dulbecco's Phosphate-Buffered Saline to 5 mg/mL. The dosing formulation consisted of equal volumes of the diluted GA solution (5 mg/mL) and CFA solution, mixed until well-emulsified. Animals were weighed and allocated to groups. Animals were dosed by injection into four footpads. The injection volume per animal was 0.1 mL (about 10 μL into each front footpad, and 40 μL into each hind footpad).
(§2) Immunized animals were euthanized by cervical dislocation on Day 10 post-immunization. Lymph node cells were isolated from animals and treated with Myelin Basic Protein (MBP, a negative control), Concanavalin A (ConA, a positive control) or GA as shown in Table 16. Lymph nodes in the axillary and popliteal regions were removed aseptically in a purifier clean bench. […] The LN were then washed 3 times with −5 mL of RPMI medium, and isolated by pressing the LN with a syringe plunger. […] The cell suspension was centrifuged at about 200×g for 10 minutes at about 4° C. and re-suspended in ice cold enriched DCCM-1 medium. Cells were seeded in 96-well tissue culture plates.
(§3) LN cells isolated from GA-immunized animals were stimulated with GA (GMA, Mylan Pharmaceuticals, Inc.) at concentrations as indicated in Tables 16 and 17. A positive control was prepared by treating LN cells with 2.5 μg/mL concavalin A (ConA, a non-specific T cell stimulant). Myelin basic protein (MBP, 10 μg/mL) and enriched DCCM-1 medium served as negative controls. The cells from all groups each were stimulated with the same GA lot. Each reaction was set up in triplicate.
(§4) After incubation at about 37° C. in a humidified CO2 incubator for 6 hours, the cells were lysed for total RNA isolation. Total RNA was isolated from treated LN cells using SV 96 Total RNA Isolation System according to the manufacturer's protocol (Promega, Cat. #Z3500). Cells were washed once with Phosphate Buffered Saline (PBS) and lysed in RNA lysis buffer. The lysate was transferred to wells of the SV 96 binding plate. Samples were washed with RNA wash solution and treated with DNase. Total RNA was eluted with nuclease-free water from the binding plate.
(§5) After the reverse transcriptase reaction was completed, cDNA samples were used directly for real-time PCR to measure the response biomarker mRNA levels produced by the stimulated cells. […] All probes for target genes contained FAM dye, and probes for the internal control contained VIC®/MGB dye. Samples will be prepared and run in 96-well plates using a Real-Time PCR system (7500, Life Technologies). This system allows direct detection of PCR-product formation by measuring the increase in fluorescent emission continuously during the PCR reaction. A relative quantitation method was used to analyze changes in mouse IL-2, IL-4, IL-5, IL-10, IL-13, IFN-γ and TNF-α expression in GA-treated samples relative to the untreated control (enriched DCCM-1 treated) samples. The Real-Time PCR program was:
(§6) The levels of mouse cytokine amplicons (IL-2, IL-4, IL-5, IL-10, IL-13, mIFN-γ and TNF-α) were normalized to internal probe levels (GAPDH) from the same samples. The following equations were used to calculate the relative increase in response to GA stimulation compared to the control sample: ΔCT=CT_target−CT_reference ΔΔCT=−ΔCT_Treated−CT_VC

IL-5 mRNA in LN cells = assay: IL-5 mRNA by real-time PCR in LN cells of GA-immunized CD-1, BALB/cByJ, SJL/J mice (Example III); conditions: 6 hours
Method: as §1, §2, §3, §4, §5, §6

[2] = test system: IL-1b secreted by LN cells; assay: IL-1b secretion by GA-stimulated LN cells, MSD 9-plex ELISA (Example II); conditions: for IL-1b secretion response ratio (treated cell medium to control DCCM1 medium): 21 hr
[3] = Group 1C: CD-1, GA-immunized, stimulation 0.3 μg/mL
[4] = Group 1C: CD-1, GA-immunized, stimulation 1 μg/mL
[5] = Group 1C: CD-1, GA-immunized, stimulation 3 μg/mL
[6] = Group 1C: CD-1, GA-immunized, stimulation 10 μg/mL
[7] = Group 2C: BALB/cByJ, GA-immunized, stimulation 0.3 μg/mL
[8] = Group 2C: BALB/cByJ, GA-immunized, stimulation 1 μg/mL
[9] = Group 2C: BALB/cByJ, GA-immunized, stimulation 3 μg/mL
[10] = Group 2C: BALB/cByJ, GA-immunized, stimulation 10 μg/mL
[11] = Group 3C: SJL/J, GA-immunized, stimulation 0.3 μg/mL
[12] = Group 3C: SJL/J, GA-immunized, stimulation 1 μg/mL
[13] = Group 3C: SJL/J, GA-immunized, stimulation 3 μg/mL
[14] = Group 3C: SJL/J, GA-immunized, stimulation 10 μg/mL
[15] = BALB/cByJ, immunized GA Intraplantar
[16] = BALB/cByJ, immunized GA Lower Limb
[17] = BALB/cByJ, immunized Mannitol Intraplantar
[18] = C57BL10J, immunized GA Intraplantar
[19] = C57BL10J, immunized GA Lower Limb
[20] = C57BL10J, immunized Mannitol Intraplantar
[21] = CD-1, immunized GA Intraplantar
[22] = CD-1, immunized Mannitol Intraplantar
[23] = Group 1C: CD-1, GA-immunized, stimulation 2.5 μg/mL
[24] = Group 2C: BALB/cByJ, GA-immunized, stimulation 2.5 μg/mL
[25] = Group 3C: SJL/J, GA-immunized, stimulation 2.5 μg/mL

Molecule	IL-10 mRNA Expression (IL-10 mRNA in LN cells; [6]) [fold change vs control]	IL-10 mRNA Expression (IL-10 mRNA in LN cells; [10]) [fold change vs control]	IL-10 mRNA Expression (IL-10 mRNA in LN cells; [14]) [fold change vs control]	IL-5 mRNA Expression (IL-5 mRNA in LN cells; [6]) [fold change vs control]	IL-5 mRNA Expression (IL-5 mRNA in LN cells; [10]) [fold change vs control]	IL-5 mRNA Expression (IL-5 mRNA in LN cells; [14]) [fold change vs control]	IL-10 secretion response ratio (treated cell medium to control DCCM1 medium) [1, 15]	IL-10 secretion response ratio (treated cell medium to control DCCM1 medium) [1, 16]	IL-10 secretion response ratio (treated cell medium to control DCCM1 medium) [1, 17]	IL-10 secretion response ratio (treated cell medium to control DCCM1 medium) [1, 18]	IL-10 secretion response ratio (treated cell medium to control DCCM1 medium) [1, 19]	IL-10 secretion response ratio (treated cell medium to control DCCM1 medium) [1, 20]	IL-10 secretion response ratio (treated cell medium to control DCCM1 medium) [1, 21]	IL-10 secretion response ratio (treated cell medium to control DCCM1 medium) ([1]; CD-1, immunized GA Lower Limb)	IL-10 secretion response ratio (treated cell medium to control DCCM1 medium) [1, 22]	IL-1b secretion response ratio (treated cell medium to control DCCM1 medium) [2, 15]	IL-1b secretion response ratio (treated cell medium to control DCCM1 medium) [2, 16]	IL-1b secretion response ratio (treated cell medium to control DCCM1 medium) [2, 19]	IL-1b secretion response ratio (treated cell medium to control DCCM1 medium) ([2]; CD-1, immunized GA Lower Limb)	further results
L-glutamic acid polymer with L-alanine, L-lysine and L-tyrosine, acetate (salt) [GA]	0.9	1.3	0.8	5.4	3.5	4.3	–	–	–	–	–	–	–	–	–	–	–	–	–	IL-10 secretion, dose response to GA (in words) ([1]; BALB/cByJ cells and CD1 cells): dose-dependent manner; IL-10 mRNA Expression (IL-10 mRNA in LN cells; [3]): 0.7 fold change vs control; IL-10 mRNA Expression (IL-10 mRNA in LN cells; [4]): 0.8 fold change vs control; IL-10 mRNA Expression (IL-10 mRNA in LN cells; [5]): 0.9 fold change vs control; IL-10 mRNA Expression (IL-10 mRNA in LN cells; [7]): 0.7 fold change vs control; IL-10 mRNA Expression (IL-10 mRNA in LN cells; [8]): 1.0 fold change vs control; IL-10 mRNA Expression (IL-10 mRNA in LN cells; [9]): 1.3 fold change vs control; IL-10 mRNA Expression (IL-10 mRNA in LN cells; [11]): 0.5 fold change vs control; IL-10 mRNA Expression (IL-10 mRNA in LN cells; [12]): 0.6 fold change vs control; IL-10 mRNA Expression (IL-10 mRNA in LN cells; [13]): 0.5 fold change vs control; IL-5 mRNA Expression (IL-5 mRNA in LN cells; [3]): 1.0 fold change vs control; IL-5 mRNA Expression (IL-5 mRNA in LN cells; [4]): 1.8 fold change vs control; IL-5 mRNA Expression (IL-5 mRNA in LN cells; [5]): 3.2 fold change vs control; IL-5 mRNA Expression (IL-5 mRNA in LN cells; [7]): 0.5 fold change vs control; IL-5 mRNA Expression (IL-5 mRNA in LN cells; [8]): 1.6 fold change vs control; IL-5 mRNA Expression (IL-5 mRNA in LN cells; [9]): 2.3 fold change vs control; IL-5 mRNA Expression (IL-5 mRNA in LN cells; [11]): 0.6 fold change vs control; IL-5 mRNA Expression (IL-5 mRNA in LN cells; [12]): 2.1 fold change vs control; IL-5 mRNA Expression (IL-5 mRNA in LN cells; [13]): 5.1 fold change vs control; IL-1β secretion, dose response to GA (in words) ([2]; BALB/cByJ and CD-1, primed by intraplantar injection): Dose response of IL-1β was detected
Concanavalin A [ConA, reference compound]	–	–	–	–	–	–	23.65	18.32	21.86	1.62	1.50	1.04	13.70	8.64	10.96	11.73	8.70	1.42	2.86	IL-10 mRNA Expression (IL-10 mRNA in LN cells; [23]): 0.4 fold change vs control; IL-10 mRNA Expression (IL-10 mRNA in LN cells; [24]): 0.9 fold change vs control; IL-10 mRNA Expression (IL-10 mRNA in LN cells; [25]): 0.4 fold change vs control; IL-5 mRNA Expression (IL-5 mRNA in LN cells; [23]): 19.1 fold change vs control; IL-5 mRNA Expression (IL-5 mRNA in LN cells; [24]): 9.1 fold change vs control; IL-5 mRNA Expression (IL-5 mRNA in LN cells; [25]): 9.7 fold change vs control
B1	0.7	1.0	0.3	0.8	0.2	0.8	1.10	1.12	1.07	1.04	1.00	1.08	1.39	1.41	1.38	1.15	0.96	1.17	1.00	–
